From EP4806898A1, “HETEROARYL DERIVATIVE COMPOUND AND USE THEREOF” (Voronoi Inc., priority 2023, dated 2025)
Like-named read-outs stand apart in the source and are kept apart here.

Legend:
[1] = system: UWB1.289 cells; assay: Cell proliferation inhibitory activity in BRCA1/2-mutant or HRD-positive cells (Cell Titer-Glo); type: cell-based; conditions: read-out: GI50 UWB1.289 BRCA1 mut
Outline: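 UWB1.289 cells (1,000/well) in 50% MEBM/50% RPMI1640 exposed to […], final 1.5 nM to 10 µM, for 144 h at 37 °C. Viable cells measured by CellTiter-Glo luminescence; GI50 calculated.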

[2] = target: T1, recombinant USP1 protein (Homo sapiens, UniProt O94782, DEL125-138/DEL229-408/DEL608-737); assay: Binding affinity to recombinant USP1 protein by differential scanning fluorimetry; conditions: read-out: ΔTm (°C)
T1 sequence (O94782 with tags, fused parts or gaps DEL125-138/DEL229-408/DEL608-737): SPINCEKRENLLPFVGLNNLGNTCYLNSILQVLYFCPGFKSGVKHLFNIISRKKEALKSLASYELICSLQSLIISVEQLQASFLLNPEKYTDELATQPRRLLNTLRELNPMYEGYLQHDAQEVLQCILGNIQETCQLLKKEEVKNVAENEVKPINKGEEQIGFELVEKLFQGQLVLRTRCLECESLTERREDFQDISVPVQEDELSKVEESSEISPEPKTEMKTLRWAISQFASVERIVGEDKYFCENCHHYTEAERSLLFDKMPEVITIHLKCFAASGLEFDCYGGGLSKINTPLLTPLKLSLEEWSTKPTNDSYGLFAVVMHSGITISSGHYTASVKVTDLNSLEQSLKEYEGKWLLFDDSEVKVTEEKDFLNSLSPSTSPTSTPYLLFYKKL
Outline: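 USP1 (Δ1-66, Δ125-138, Δ229-408, Δ608-737) at 0.03 mg/mL with dye in 50 mM Tris-HCl pH 8.0, 150 mM NaCl, 2% glycerol, 1 mM DTT; compounds at 100 µM final. Tm read on real-time PCR instrument; ΔTm = Tm with compound minus Tm with DMSO.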

[3] = UWB1289, UWB1.289 cells, 144 hours after compound treatment, Cell Titer-Glo, 1.5 nM to 10 µM
[4] = compound 100 µM, 0.03 mg/mL USP1 (Δ1-66, Δ125-138, Δ229-408, Δ608-737), Tm with compound minus Tm with DMSO

Compound	GI50 [1, 3] [nM]	ΔTm at 100 µM [2, 4] [°C]	GI50 ([1]; UWB1289, 144 h) [nM]	ΔTm at 100 µM [2] [°C]
COc1ncnc(C2CC2)c1-c1ncc2cc(C(=O)NCC(C)(C)N)n(Cc3ccc(-c4nc(C(F)(F)F)cn4C(C)C)cc3)c2n1 [Example 118, N-(2-amino-2-methylpropyl)-2-(4-cyclopropyl-6-methoxypyrimidin-5-yl)-7-(4-(1-isopropyl-4-(trifluoromethyl)-1H-imidazol-2-yl)benzyl)-7H-pyrrolo[2,3-d]pyrimidine-6-carboxamide]	< 100	> 5	–	–
CNC(=O)c1cc2cnc(-c3c(OC(C)C)ncnc3C3CC3)nc2n1Cc1ccc(-c2nc(C(F)(F)F)cn2C(C)C)cc1 [Example 119, 2-(4-cyclopropyl-6-isopropoxypyrimidin-5-yl)-7-(4-(1-isopropyl-4-(trifluoromethyl)-1H-imidazol-2-yl)benzyl)-N-methyl-7H-pyrrolo[2,3-d]pyrimidine-6-carboxamide]	< 100	> 5	–	–
COc1ncnc(C2CC2)c1-c1ncc2cc(C(=O)NC3CCN(C4CC4)CC3)n(Cc3ccc(-c4nc(C(F)(F)F)cn4C(C)C)cc3)c2n1 [Example 121, 2-(4-cyclopropyl-6-methoxypyrimidin-5-yl)-N-(1-cyclopropylpiperidin-4-yl)-7-(4-(1-isopropyl-4-(trifluoromethyl)-1H-imidazol-2-yl)benzyl)-7H-pyrrolo[2,3-d]pyrimidine-6-carboxamide]	< 100	> 5	–	–
COc1ncnc(C2CC2)c1-c1ncc2cc(C(=O)N[C@H]3C[C@H](OC)C3)n(Cc3ccc(-c4nc(C(F)(F)F)cn4C(C)C)cc3)c2n1 [Example 122, 2-(4-cyclopropyl-6-methoxypyrimidin-5-yl)-7-(4-(1-isopropyl-4-(trifluoromethyl)-1H-imidazol-2-yl)benzyl)-N-((1r,3r)-3-methoxycyclobutyl)-7H-pyrrolo[2,3-d]pyrimidine-6-carboxamide]	100 to 500	> 5	–	–
COc1ncnc(C2CC2)c1-c1ncc2cc(C(=O)N3CC[C@@H](OC)C3)n(Cc3ccc(-c4nc(C(F)(F)F)cn4C(C)C)cc3)c2n1 [Example 123, (R) - (2-(4-cyclopropyl-6-methoxypyrimid in-5-yl)-7-(4-(1-isopropyl-4-(trifluoromethyl)-1H-imidazol-2-yl)benzyl)-7H-pyrrolo[2,3-d]pyrimidin-6-yl) (3-methoxypyrrolidin-1-yl)methanone]	–	–	100 to 500	> 5
COc1ncnc(C2CC2)c1-c1ncc2cc(C(=O)NC[C@@H]3CCCO3)n(Cc3ccc(-c4nc(C(F)(F)F)cn4C(C)C)cc3)c2n1 [Example 124, (S)-2-(4-cyclopropyl-6-methoxypyrimidin-5-yl)-7-(4-(1-isopropyl-4-(trifluoromethyl)-1H-imidazol-2-yl)benzyl)-N-((tetrahydrofuran-2-yl)methyl)-7H-pyrrolo[2,3-d]pyrimidine-6-carboxamide]	< 100	> 5	–	–
COc1ncnc(C2CC2)c1-c1ncc2cc(C(=O)NCC3(C)COC3)n(Cc3ccc(-c4nc(C(F)(F)F)cn4C(C)C)cc3)c2n1 [Example 125, 2-(4-cyclopropyl-6-methoxypyrimidin-5-yl)-7-(4-(1-isopropyl-4-(trifluoromethyl)-1H-imidazol-2-yl)benzyl)-N-((3-methyloxetan-3-yl)methyl)-7H-pyrrolo[2,3-d]pyrimidine-6-carboxamide]	< 100	> 5	–	–
COc1ncnc(C2CC2)c1-c1ncc2cc(C(=O)NC3CCN(CC(C)(C)F)CC3)n(Cc3ccc(-c4nc(C(F)(F)F)cn4C(C)C)cc3)c2n1 [Example 126, 2-(4-cyclopropyl-6-methoxypyrimidin-5-yl)-N-(1-(2-fluoro-2-methylpropyl)piperidin-4-yl)-7-(4-(1-isopropyl-4-(trifluoromethyl)-1H-imidazol-2-yl)benzyl)-7H-pyrrolo[2,3-d]pyrimidine-6-carboxamide]	< 100	> 5	–	–
COc1ncnc(C2CC2)c1-c1ncc2cc(C(=O)NC[C@H]3CCCO3)n(Cc3ccc(-c4nc(C(F)(F)F)cn4C(C)C)cc3)c2n1 [Example 127, (R) -2-(4-cyclopropyl-6-methoxypyrimidin-5-yl)-7-(4-(1-isopropyl-4-(trifluoromethyl)-1H-imidazol-2-yl)benzyl)-N-((tetrahydrofuran-2-yl)methyl)-7H-pyrrolo[2,3-d]pyrimidine-6-carboxamide]	< 100	> 5	–	–
COc1ncnc(C2CC2)c1-c1ncc2cc(C(=O)N3CC[C@H](OC)C3)n(Cc3ccc(-c4nc(C(F)(F)F)cn4C(C)C)cc3)c2n1 [Example 128, (S)-(2-(4-cyclopropyl-6-methoxypyrimidin-5-yl)-7-(4-(1-isopropyl-4-(trifluoromethyl)-1H-imidazol-2-yl)benzyl)-7H-pyrrolo[2,3-d]pyrimidin-6-yl) (3-methoxypyrrolidin-1-yl)methanone]	< 100	> 5	–	–
COc1ncnc(C2CC2)c1-c1ncc2cc(C(=O)N[C@H]3C[C@H]3F)n(Cc3ccc(-c4nc(C(F)(F)F)cn4C(C)C)cc3)c2n1 [Example 129, 2-(4-cyclopropyl-6-methoxypyrimidin-5-yl)-N-((1S,2R)-2-fluorocyclopropyl)-7-(4-(1-isopropyl-4-(trifluoromethyl)-1H-imidazol-2-yl)benzyl)-7H-pyrrolo[2,3-d]pyrimidine-6-carboxamide]	< 100	> 5	–	–
CNC(=O)c1cc2cnc(-c3c(OC4CC4)ncnc3C3CC3)nc2n1Cc1ccc(-c2nc(C(F)(F)F)cn2C(C)C)cc1 [Example 130, 2-(4-cyclopropoxy-6-cyclopropylpyrimidin-5-yl)-7-(4-(1-isopropyl-4-(trifluoromethyl)-1H-imidazol-2-yl)benzyl)-N-methyl-7H-pyrrolo[2,3-d]pyrimidine-6-carboxamide]	< 100	> 5	–	–
COc1ncnc(C2CC2)c1-c1ncc2cc(C(=O)N[C@H]3C[C@@H](OC)C3)n(Cc3ccc(-c4nc(C(F)(F)F)cn4C(C)C)cc3)c2n1 [Example 131, 2-(4-cyclopropyl-6-methoxypyrimidin-5-yl)-7-(4-(1-isopropyl-4-(trifluoromethyl)-1H-imidazol-2-yl)benzyl)-N-((1s,3s)-3-methoxycyclobutyl)-7H-pyrrolo[2,3-d]pyrimidine-6-carboxamide]	< 100	> 5	–	–
CCC1(NC(=O)c2cc3cnc(-c4c(OC)ncnc4C4CC4)nc3n2Cc2ccc(-c3nc(C(F)(F)F)cn3C(C)C)cc2)COC1 [Example 132, 2-(4-cyclopropyl-6-methoxypyrimidin-5-yl)-N-(3-ethyloxetan-3-yl)-7-(4-(1-isopropyl-4-(trifluoromethyl)-1H-imidazol-2-yl)benzyl)-7H-pyrrolo[2,3-d]pyrimidine-6-carboxamide]	< 100	> 5	–	–
COc1ncnc(C2CC2)c1-c1ncc2cc(C(=O)NC3CCN(CC4(F)CC4)CC3)n(Cc3ccc(-c4nc(C(F)(F)F)cn4C(C)C)cc3)c2n1 [Example 133, 2-(4-cyclopropyl-6-methoxypyrimidin-5-yl)-N-(1-((1-fluorocyclopropyl)methyl)piperidin-4-yl)-7-(4-(1-isopropyl-4-(trifluoromethyl)-1H-imidazol-2-yl)benzyl)-7H-pyrrolo[2,3-d]pyrimidine-6-carboxamide]	< 100	> 5	–	–
CNC(=O)c1cc2cnc(-c3cccnc3C(C)C)nc2n1Cc1ccc(-c2nc(C(F)(F)F)cn2C(C)C)cc1 [Example 134, 7-(4-(1-isopropyl-4-(trifluoromethyl)-1H-imidazol-2-yl)benzyl)-2-(2-isopropylpyridin-3-yl)-N-methyl-7H-pyrrolo[2,3-d]pyrimidine-6-carboxamide]	< 100	> 5	–	–
COc1ncnc(C2CC2)c1-c1ncc2cc(C(=O)NC[C@H](C)OC)n(Cc3ccc(-c4nc(C(F)(F)F)cn4C(C)C)cc3)c2n1 [Example 135, (S)-2-(4-cyclopropyl-6-methoxypyrimidin-5-yl)-7-(4-(1-isopropyl-4-(trifluoromethyl)-1H-imidazol-2-yl)benzyl)-N-(2-methoxypropyl) -7H-pyrrolo[2,3-d]pyrimidine-6-carboxamide]	< 100	> 5	–	–
COc1ncnc(C2CC2)c1-c1ncc2cc(C(=O)NC3CCN(C(C)C)CC3)n(Cc3ccc(-c4nc(C(F)(F)F)cn4C(C)C)cc3)c2n1 [Example 137, 2-(4-cyclopropyl-6-methoxypyrimidin-5-yl)-7-(4-(1-isopropyl-4-(trifluoromethyl)-1H-imidazol-2-yl)benzyl)-N-(1-isopropylpiperidin-4-yl)-7H-pyrrolo[2,3-d]pyrimidine-6-carboxamide]	< 100	> 5	–	–
